Reference: patent US8513232B2, “Substituted spirocyclic piperidine derivatives as histamine-3 (H3) receptor ligands” (Cephalon, Inc., priority 2008, dated 2013)
Read-outs that look alike come from different tables or passages of the source.

Legend:
[1] = target: T1, rat histamine H3 receptor (Rattus norvegicus, UniProt Q9QYN8); test: Rat H3 radioligand binding ([3H]-N-alpha-methylhistamine, SPA)
T1 construct: encoding the entire 445-amino-acid rat histamine H3 receptor; expressed in transfected cells; membrane preparation
T1 sequence (Q9QYN8 whole entry): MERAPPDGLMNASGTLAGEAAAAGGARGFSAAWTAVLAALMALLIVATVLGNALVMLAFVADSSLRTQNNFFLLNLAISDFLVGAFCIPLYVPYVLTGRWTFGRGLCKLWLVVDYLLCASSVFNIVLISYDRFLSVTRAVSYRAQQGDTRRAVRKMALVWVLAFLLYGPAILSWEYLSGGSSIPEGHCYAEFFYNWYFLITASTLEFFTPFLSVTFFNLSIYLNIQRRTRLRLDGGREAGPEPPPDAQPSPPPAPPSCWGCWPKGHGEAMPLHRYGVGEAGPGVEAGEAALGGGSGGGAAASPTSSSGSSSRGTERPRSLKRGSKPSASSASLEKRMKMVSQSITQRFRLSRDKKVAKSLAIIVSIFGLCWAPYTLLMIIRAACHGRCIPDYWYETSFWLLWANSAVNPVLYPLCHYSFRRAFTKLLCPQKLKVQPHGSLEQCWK
Outline: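 SPA-bead binding assay using [3H]-N-alpha-methylhistamine (approximately 1 nM final) with test compounds from 0.01 nM to 30 μM. Rat H3 receptor membranes came from stably transfected CHO-A3 cells; incubation ran 4 h at room temperature, in the dark, in Tris pH 7.4 buffer with MgCl2 and BSA. Clobenpropit (10 μM) gave non-specific binding.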

human H3 receptor = target: T2, human H3 receptor (Homo sapiens, UniProt Q9Y5N1); test: Human H3 radioligand binding ([3H]-N-alpha-methylhistamine, SPA)
T2 construct: expressed in transfected cells
T2 sequence (Q9Y5N1 whole entry): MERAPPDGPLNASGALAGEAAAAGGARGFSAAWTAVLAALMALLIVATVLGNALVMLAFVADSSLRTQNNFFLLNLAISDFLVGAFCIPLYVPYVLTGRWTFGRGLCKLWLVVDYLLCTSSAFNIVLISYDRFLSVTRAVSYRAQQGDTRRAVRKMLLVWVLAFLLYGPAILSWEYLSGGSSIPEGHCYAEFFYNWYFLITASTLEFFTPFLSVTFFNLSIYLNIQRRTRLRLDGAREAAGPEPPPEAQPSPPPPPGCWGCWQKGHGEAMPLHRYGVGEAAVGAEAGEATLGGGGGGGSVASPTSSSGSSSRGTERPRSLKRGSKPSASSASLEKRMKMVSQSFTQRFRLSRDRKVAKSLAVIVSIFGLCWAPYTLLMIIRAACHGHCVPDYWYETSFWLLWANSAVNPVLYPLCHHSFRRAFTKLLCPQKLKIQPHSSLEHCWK
Outline: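 Compounds (0.01 nM-30 μM) competed with approximately 1 nM [3H]-N-alpha-methylhistamine for human H3 receptor in membranes of stably transfected CHO cells, 10 μg protein per well, in Tris-HCl pH 7.4/MgCl2/BSA buffer for 4 h at room temperature. Bound radioligand measured by scintillation proximity; 10 μM clobenpropit gave non-specific binding.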

[2] = rat H3 binding, Table D, read-out: Rat H3 Ki
[3] = human H3 binding, Table D, read-out: Human H3 Ki
[4] = Table A, rat H3 binding, read-out: Rat Ki
[5] = Table A, human H3 binding, read-out: Human Ki
[6] = Table C, rat H3 binding, read-out: Rat H3 Ki
[7] = Table C, human H3 binding, read-out: Human H3 Ki
[8] = Rat H3 binding, Table B, Examples 136-362, read-out: rat H3 binding Ki
[9] = Human H3 binding, Table B, Examples 136-362, read-out: hum H3 binding Ki

SMILES | Ki [1, 2] [nM] | Ki (human H3 receptor; [3]) [nM] | melting point | Ki [1, 8] [nM] | Ki (human H3 receptor; [9]) [nM] | also measured
NC(=O)c1ccc(-c2ccc3c(c2)COC2(CCN(C4CCC4)CC2)O3)s1 [Example 679] | < 200 | < 200 | 250 °C (dec.) |  |  | 
CN(C)C(=O)c1cn(-c2ccc3c(c2)COC2(CCN(C4CCC4)CC2)O3)c2ccccc12 [Example 83] |  |  | 100 to 110 °C |  |  | Ki [1, 4]: < 200 nM; Ki (human H3 receptor; [5]): < 200 nM
COC(=O)/C=C/c1ccc2c(c1)COC1(CCN(C3CCC3)CC1)O2 [Example 618] | < 200 | < 200 | 131 to 133 °C |  |  | 
CNC(=O)c1ccc(N2CCN(c3ccc4c(c3)CCC3(CCN(C5CCC5)CC3)O4)CC2)nc1 [Example 409] |  |  | 297 to 299 °C |  |  | Ki [1, 6]: < 200 nM; Ki (human H3 receptor; [7]): < 200 nM
Cc1cc(-c2ccc3c(c2)CCC2(CCN(C4CCC4)CC2)O3)ccc1C(=O)NCCO [Example 238] |  |  | 78.5 to 79.8 °C | < 200 | < 200 | 
CN(C)C(=O)c1ccc(-c2ccc3c(c2)COC2(CCN(C4CCC4)CC2)O3)cc1Cl [Example 608] | < 200 | < 200 | 80 to 82 °C |  |  | 
OCc1ccc(-c2ccc3c(c2)COC2(CCN(C4CCC4)CC2)O3)cc1 [Example 44] |  |  | 131 to 134 °C |  |  | Ki [1, 4]: < 200 nM; Ki (human H3 receptor; [5]): < 200 nM
O=C(c1ccc(-c2ccc3c(c2)CCC2(CCN(C4CCC4)CC2)O3)cc1)N1CCC(O)CC1 [Example 206] |  |  | 90.4 to 92.6 °C | < 200 | < 200 | 
c1cc2c(cc1N1CCCCC1)CCC1(CCN(C3CCC3)CC1)O2 [Example 393] |  |  | > 280 °C (dec.) |  |  | Ki [1, 6]: < 200 nM; Ki (human H3 receptor; [7]): < 200 nM
O=C(C1CC1)N1CCC(COc2ccc3c(c2)CCC2(CCN(C4CCC4)CC2)O3)CC1 [Example 358] |  |  | 128 to 130 °C | < 200 | < 200 | 
O=S1(=O)CCN(c2ccc3c(c2)CCC2(CCN(C4CCC4)CC2)O3)CC1 [Example 406] |  |  | > 285 °C (dec.) |  |  | Ki [1, 6]: < 200 nM; Ki (human H3 receptor; [7]): < 200 nM
Cc1ccc(-c2ccc3c(c2)COC2(CCN(C4CCC4)CC2)O3)c(C)n1 [Example 748] | < 200 | < 200 | 190 to 192 °C |  |  | 
Cc1c(-c2ccc3c(c2)COC2(CCN(C4CCC4)CC2)O3)c[nH]c(=O)c1C [Example 799] | < 200 | < 200 | 178 to 180 °C |  |  | 
CC1CN=C(CCc2ccc3c(c2)COC2(CCN(C4CCC4)CC2)O3)O1 (stereo not drawn) [Example 691] | < 200 | < 200 | 61 to 63 °C |  |  | 
COc1cc(C(N)=O)ccc1-c1ccc2c(c1)COC1(CCN(C3CCC3)CC1)O2 [Example 712] | < 200 | < 200 | 122 to 124 °C |  |  | 
O=C(c1ccc(-c2ccc3c(c2)COC2(CCN(C4CCC4)CC2)O3)s1)N1CCOCC1 [Example 643] | < 200 | < 200 | 166 to 167 °C |  |  | 
O=C(NCCO)c1ccc(-c2cc(F)c3c(c2)COC2(CCN(C4CCC4)CC2)O3)cc1 [Example 141] |  |  | 145 to 147 °C | < 200 | < 200 | 
CNc1cc(C(=O)Nc2ccc3c(c2)COC2(CCN(C4CCC4)CC2)O3)ccn1 [Example 323] |  |  | 207 to 208 °C | < 200 | < 200 | 
COCCNC(=O)c1ccc(-c2ccc3c(c2)CCC2(CCN(C4CCC4)CC2)O3)cc1 [Example 193] |  |  | 158 to 160 °C | < 200 | < 200 | 
c1cc(CNc2ccc3c(c2)COC2(CCN(C4CCC4)CC2)O3)ccn1 [Example 247] |  |  | 45 to 48 °C | < 200 | < 200 | 

SMILES | Ki [1, 2] [nM] | Ki (human H3 receptor; [3]) [nM] | melting point | Ki [1, 8] [nM] | Ki (human H3 receptor; [9]) [nM] | also measured
CNC(=O)c1ccc(-c2ccc3c(c2)CCOC2(CCN(C4CCC4)CC2)O3)cc1 [Example 180] |  |  | 155.6 to 157.3 °C | > 1000 | 200 to 1000 | 
O=C(NCCO)c1ccc(-c2ccc3c(c2)COC2(CCN(C4CCC4)CC2)O3)cc1 [Example 50] |  |  | 185 to 187 °C |  |  | Ki [1, 4]: < 200 nM; Ki (human H3 receptor; [5]): < 200 nM
COCc1cc(-c2ccc3c(c2)COC2(CCN(C4CCC4)CC2)O3)cnc1OC [Example 804] | < 200 | < 200 | 257 °C |  |  | 
Cc1nnc(C2CCN(c3ccc4c(c3)COC3(CCN(C5CCC5)CC3)O4)CC2)o1 [Example 657] | < 200 | < 200 | 75.5 to 77.8 °C |  |  | 
CCS(=O)(=O)C1CCN(c2ccc3c(c2)COC2(CCN(C4CCC4)CC2)O3)CC1 [Example 648] | < 200 | < 200 | 147.7 to 149.8 °C |  |  | 
c1cc2c(cc1N1CCNCC1)CCC1(CCN(C3CCC3)CC1)O2 [Example 377] |  |  | 116 to 118 °C |  |  | Ki [1, 6]: < 200 nM; Ki (human H3 receptor; [7]): < 200 nM
O=C1CCC(c2ccc3c(c2)COC2(CCN(C4CCC4)CC2)O3)CN1CC(F)F (stereo not drawn) [Example 560] |  |  | 120 to 126 °C |  |  | Ki ([1]; read-out: Rat H3 kI): 200 to 1000 nM; Ki (human H3 receptor; read-out: Human H3 Ki): 200 to 1000 nM
N#Cc1ccc(C(=O)Nc2ccc3c(c2)CCC2(CCN(C4CCC4)CC2)O3)cc1 [Example 224] |  |  | 186 to 188 °C | < 200 | < 200 | 
O=C(Cc1ccccn1)Nc1ccc2c(c1)COC1(CCN(C3CCC3)CC1)O2 [Example 322] |  |  | 166 to 168 °C | < 200 | < 200 | 
O=C1CCN(C(=O)c2ccc(-c3ccc4c(c3)CCC3(CCN(C5CCC5)CC3)O4)cc2)CC1 [Example 197] |  |  | 82.9 to 84.3 °C |  |  | Ki [1]: < 200 nM; Ki (human H3 receptor): < 200 nM
O=C(C1CCN(c2ccc3c(c2)COC2(CCN(C4CCC4)CC2)O3)CC1)N1CCOCC1 [Example 468] |  |  | 282 to 284 °C |  |  | Ki ([1]; read-out: Rat H3 kI): < 200 nM; Ki (human H3 receptor; read-out: Human H3 Ki): < 200 nM
CNC(=O)c1ccc(-c2ccc3c(c2)COC2(CCN(C4CCC4)CC2)O3)nc1 [Example 590] | < 200 | < 200 | 175 to 177 °C |  |  | 
O=C(c1ccc(-c2ccc3c(c2)COC2(CCN(C4CCC4)CC2)O3)cc1F)N1CC[C@H](O)C1 [Example 192] |  |  | 99.5 to 100.5 °C | < 200 | < 200 | 
COc1ncccc1-c1ccc2c(c1)COC1(CCN(C3CCC3)CC1)O2 [Example 747] | < 200 | < 200 | 210 to 212 °C |  |  | 
N#Cc1cccc(Nc2ccc3c(c2)COC2(CCN(C4CCC4)CC2)O3)c1 [Example 123] |  |  | 55 to 60 °C |  |  | Ki [1, 4]: < 200 nM; Ki (human H3 receptor; [5]): < 200 nM
c1ccc(-c2ccc3c(c2)COC2(CCN(C4CCC4)CC2)O3)cc1 [Example 39] |  |  | 127.8 to 128.6 °C |  |  | Ki [1, 4]: < 200 nM; Ki (human H3 receptor; [5]): < 200 nM
COC1(c2ccc3c(c2)COC2(CCN(C4CCC4)CC2)O3)CCC(F)(F)CC1 [Example 556] |  |  | 116 to 118 °C |  |  | Ki ([1]; read-out: Rat H3 kI): < 200 nM; Ki (human H3 receptor; read-out: Human H3 Ki): < 200 nM
O=c1ccc(-c2ccc3c(c2)COC2(CCN(C4CCC4)CC2)O3)cn1CCO [Example 720] | < 200 | < 200 | 129 to 130 °C |  |  | 
c1cc(COc2ccc3c(c2)CCC2(CCN(C4CCC4)CC2)O3)ccn1 [Example 269] |  |  | 233 to 235 °C | < 200 | < 200 | 
OC(c1ccc(Cl)nc1)c1ccc2c(c1)COC1(CCN(C3CCC3)CC1)O2 (stereo not drawn) [Example 508] |  |  | 79 to 81 °C |  |  | Ki ([1]; read-out: Rat H3 kI): < 200 nM; Ki (human H3 receptor; read-out: Human H3 Ki): < 200 nM
